In article PMC4607407 (PLoS ONE, 2015):
Where “and” joins values, the source holds several entries; their conditions need not be identical. Equal values may be shown once.

Key:
[1] = system: BT-483; assay: OncoPanel anti-proliferative activity; type: cell-based; conditions: Homo sapiens, 72 hour
Method: Cells were seeded into 384-well plates and incubated in a humidified atmosphere of 5% CO2 at 37°C. Compounds were added 24 hours post cell seeding. At the same time, a time zero untreated cell plate was generated. Compounds were serially diluted 3.16-fold and assayed over a range of 10 concentrations in buffer containing 0.1% DMSO. Automated fluorescence microscopy was carried out using an IN Cell Analyzer 1000 (GE Healthcare, Marlborough, MA), and images were collected with a 4X objective. After a 72 hour incubation period, cells were fixed and stained with fluorescently labeled antibodies and nuclear dye to determine relative cell number. Twelve bit tiff images were acquired using the IN Cell Analyzer 1000 3.2 and analyzed with Developer Toolbox 1.6 software (GE Healthcare). GI50 values were calculated using nonlinear regression to fit data to a sigmoidal 4 point, 4 parameter One-Site dose response model, where: y (fit) = A + [(B–A)/(1 + ((C/x) ^ D))]. Curve-fitting, GI50 calculations and report generation are performed using a custom data reduction engine MathIQ based software (AIM).

[2] = system: KPL-4 xenograft; assay: KPL-4 mouse xenograft efficacy; type: in vivo, mice; conditions: 120 mg/kg oral daily for 8 days; p<0.001
Method: For efficacy studies, AN3CA cells (5x10^6) were inoculated into female NCr nu/nu mice. When tumors reached a size of 250 mm^3, mice were randomly grouped into 5 groups. […] KPL-4 cells (1.5x10^7) were inoculated subcutaneously into female nude mice (BALB/cAJc1-nu/nu). […] ZR-75-1 tumor fragments were inoculated into female NOD/scid mice.
(§4) The tumor length and width (mm) were measured using a digital caliper. The estimated tumor volume (mm^3) was calculated according to the following formula: 0.5 x (tumor length) x (tumor width)^2, and reported as the mean ± SEM.

[3] = system: melanoma PDX tumor model (ST052C); assay: Vemurafenib-resistant melanoma PDX combination study; type: in vivo, mice; conditions: ARQ 092 100 mg/kg 5 days on 2 days off; trametinib 3 mg/kg; p<0.05
Method: Athymic nude mice (Charles River Laboratories, Wilmington, MA) were subcutaneously implanted with tumor fragments and the study was initiated seven days later when the mean tumor volume was approximately 140 mm^3. […] After 13 days, the dosing schedule for trametinib was reduced to a schedule of 5 days on and 2 days off.
as §4

[4] = system: ST993; assay: Endometrial PDX panel screen; type: in vivo, mice
[5] = system: ST657; assay: Endometrial PDX panel screen; type: in vivo, mice; conditions: 100 mg/kg once daily orally 14 days
[6] = system: ST819; assay: Endometrial PDX panel screen; type: in vivo, mice; conditions: 100 mg/kg once daily orally 14 days
[7] = system: ST633; assay: Endometrial PDX panel screen; type: in vivo, mice; conditions: 100 mg/kg once daily orally 14 days
[8] = system: ST609; assay: Endometrial PDX panel screen; type: in vivo, mice; conditions: 100 mg/kg once daily orally 14 days
[9] = system: ST013; assay: Endometrial PDX panel screen; type: in vivo, mice; conditions: 100 mg/kg once daily orally 14 days
[10] = system: pAKT(S473); assay: cells; conditions: Homo sapiens, AN3-CA, 2 h, read-out: IC50 pAKT(S473)
[11] = system: pPRAS40(T246); assay: cells; conditions: Homo sapiens, AN3-CA, 2 h, read-out: IC50 pPRAS40(T246)
[12] = in vivo; conditions: mouse, oral, 100 mg/kg
[13] = target: T1, Haspin (Homo sapiens, UniProt Q8TF76); assay: Kinase profiling (Carna Biosciences); type: biochemical
T1 construct: purchased Carna Biosciences, Inc. (Kobe, Japan)

[14] = target: T2, AKT1-FL (Homo sapiens, UniProt P31749); assay: Kinase profiling (Carna Biosciences); type: biochemical
T2 construct: purchased Carna Biosciences, Inc. (Kobe, Japan)
Method: (§1) The % inhibition was determined relative to DMSO control.

[15] = target: T3, Blk(h) (Homo sapiens, UniProt P51451); assay: Kinase profiling (Carna Biosciences); type: biochemical
T3 construct: purchased Carna Biosciences, Inc. (Kobe, Japan)
Method: as §1

[16] = target: T4, CDK2/cyclinE (Homo sapiens, UniProt P24941); assay: Kinase profiling (Carna Biosciences); type: biochemical
T4 construct: purchased Carna Biosciences, Inc. (Kobe, Japan)
Method: as §1

[17] = target: T5, ErbB4(HER4) (Homo sapiens, UniProt Q15303); assay: Kinase profiling (Carna Biosciences); type: biochemical
T5 construct: purchased Carna Biosciences, Inc. (Kobe, Japan)
Method: as §1

[18] = target: T6, FAK (Homo sapiens, UniProt Q05397); assay: Kinase profiling (Carna Biosciences); type: biochemical
T6 construct: purchased Carna Biosciences, Inc. (Kobe, Japan)
Method: as §1

[19] = target: T7, LKB1 (Homo sapiens, UniProt Q15831); assay: Kinase profiling (Carna Biosciences); type: biochemical
T7 construct: purchased Carna Biosciences, Inc. (Kobe, Japan)
Method: as §1

[20] = target: T8, Met (Homo sapiens, UniProt P08581); assay: Kinase profiling (Carna Biosciences); type: biochemical
T8 construct: purchased Carna Biosciences, Inc. (Kobe, Japan)
Method: as §1

[21] = system: Other 232 kinases; assay: Kinase profiling (Carna Biosciences); type: biochemical; conditions: panel of 245 kinases
Method: as §1

[22] = target: T9, PASK (Homo sapiens, UniProt Q96RG2); assay: Kinase profiling (Carna Biosciences); type: biochemical
T9 construct: purchased Carna Biosciences, Inc. (Kobe, Japan)
Method: as §1

[23] = target: T10, Pim-3 (Homo sapiens, UniProt Q86V86); assay: Kinase profiling (Carna Biosciences); type: biochemical
T10 construct: purchased Carna Biosciences, Inc. (Kobe, Japan)
Method: as §1

[24] = target: T11, SGK3(119-end) (Homo sapiens, UniProt Q96BR1); assay: Kinase profiling (Carna Biosciences); type: biochemical
T11 construct: SGK3(119-end); purchased Carna Biosciences, Inc. (Kobe, Japan)
Method: as §1

[25] = target: T12, Syk (Homo sapiens, UniProt P43405); assay: Kinase profiling (Carna Biosciences); type: biochemical
T12 construct: purchased Carna Biosciences, Inc. (Kobe, Japan)
Method: as §1

[26] = target: T13, Tie2 (Homo sapiens, UniProt Q02763); assay: Kinase profiling (Carna Biosciences); type: biochemical
T13 construct: purchased Carna Biosciences, Inc. (Kobe, Japan)
Method: as §1

[27] = system: p-AKT(S473); assay: Cell-based ELISA in AN3CA cells; design: species or system human; conditions: 1 hour
From the text: (§2) (DOCX) Click here for additional data file.
(§3) P-AKT (Thr308), p-AKT (Ser473) and p-PRAS40 (Thr246) in the cells were probed with corresponding rabbit antibodies (Cell Signaling Technology). Total AKT and total PRAS40 in the cells were probed with corresponding mouse antibodies (Cell Signaling Technology). Horseradish peroxidase (HRP)-conjugated goat anti-rabbit IgG (Cell Signaling Technology) and alkaline phosphatase (AP)-conjugated goat anti-mouse IgG (Santa Cruz Biotechnology, Inc., Dallas, TX) were used as secondary antibodies. The HRP chemiluminescent detection was performed with SuperSignal ELISA Pico Chemiluminescent Substate (Thermo Fisher Scientific, Inc.) and PHERAstar (BMG Labtech Inc., Cary, NC) according the manufacturer’s instructions. After washing the AP chemiluminescent detection was performed with ELISA-Light Immunoassay System with CDP-Star and Sapphire-II Substrate/Enhancer Solution (Life Technologies Corporation) and PHERAstar according to the manufacturer’s instructions. The chemiluminescent signal was rounded to an integer in MARS 2.40 (BMG Labtech, Inc.) and the relative phosphorylation rate was calculated.

[28] = system: p-AKT(T308); assay: Cell-based ELISA in AN3CA cells; design: species or system human; conditions: 1 hour
From the text: as §2, §3

[29] = system: p-PRAS40(T246); assay: Cell-based ELISA in AN3CA cells; design: species or system human; conditions: 1 hour
From the text: as §2, §3

[30] = 100 mg/kg once daily orally 14 days

T11 sequence (Q96BR1 119-496 limits assumed): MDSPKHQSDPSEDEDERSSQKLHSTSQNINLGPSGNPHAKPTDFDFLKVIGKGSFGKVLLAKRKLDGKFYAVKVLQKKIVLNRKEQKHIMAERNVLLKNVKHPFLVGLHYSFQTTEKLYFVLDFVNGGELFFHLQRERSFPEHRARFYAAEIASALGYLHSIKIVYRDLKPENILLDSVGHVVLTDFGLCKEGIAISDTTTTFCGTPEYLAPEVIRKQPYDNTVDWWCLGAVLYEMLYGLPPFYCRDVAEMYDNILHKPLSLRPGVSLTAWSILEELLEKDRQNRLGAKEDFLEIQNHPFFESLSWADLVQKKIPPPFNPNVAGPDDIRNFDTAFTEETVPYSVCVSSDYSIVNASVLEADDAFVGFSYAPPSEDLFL
T9 sequence (Q96RG2 whole entry): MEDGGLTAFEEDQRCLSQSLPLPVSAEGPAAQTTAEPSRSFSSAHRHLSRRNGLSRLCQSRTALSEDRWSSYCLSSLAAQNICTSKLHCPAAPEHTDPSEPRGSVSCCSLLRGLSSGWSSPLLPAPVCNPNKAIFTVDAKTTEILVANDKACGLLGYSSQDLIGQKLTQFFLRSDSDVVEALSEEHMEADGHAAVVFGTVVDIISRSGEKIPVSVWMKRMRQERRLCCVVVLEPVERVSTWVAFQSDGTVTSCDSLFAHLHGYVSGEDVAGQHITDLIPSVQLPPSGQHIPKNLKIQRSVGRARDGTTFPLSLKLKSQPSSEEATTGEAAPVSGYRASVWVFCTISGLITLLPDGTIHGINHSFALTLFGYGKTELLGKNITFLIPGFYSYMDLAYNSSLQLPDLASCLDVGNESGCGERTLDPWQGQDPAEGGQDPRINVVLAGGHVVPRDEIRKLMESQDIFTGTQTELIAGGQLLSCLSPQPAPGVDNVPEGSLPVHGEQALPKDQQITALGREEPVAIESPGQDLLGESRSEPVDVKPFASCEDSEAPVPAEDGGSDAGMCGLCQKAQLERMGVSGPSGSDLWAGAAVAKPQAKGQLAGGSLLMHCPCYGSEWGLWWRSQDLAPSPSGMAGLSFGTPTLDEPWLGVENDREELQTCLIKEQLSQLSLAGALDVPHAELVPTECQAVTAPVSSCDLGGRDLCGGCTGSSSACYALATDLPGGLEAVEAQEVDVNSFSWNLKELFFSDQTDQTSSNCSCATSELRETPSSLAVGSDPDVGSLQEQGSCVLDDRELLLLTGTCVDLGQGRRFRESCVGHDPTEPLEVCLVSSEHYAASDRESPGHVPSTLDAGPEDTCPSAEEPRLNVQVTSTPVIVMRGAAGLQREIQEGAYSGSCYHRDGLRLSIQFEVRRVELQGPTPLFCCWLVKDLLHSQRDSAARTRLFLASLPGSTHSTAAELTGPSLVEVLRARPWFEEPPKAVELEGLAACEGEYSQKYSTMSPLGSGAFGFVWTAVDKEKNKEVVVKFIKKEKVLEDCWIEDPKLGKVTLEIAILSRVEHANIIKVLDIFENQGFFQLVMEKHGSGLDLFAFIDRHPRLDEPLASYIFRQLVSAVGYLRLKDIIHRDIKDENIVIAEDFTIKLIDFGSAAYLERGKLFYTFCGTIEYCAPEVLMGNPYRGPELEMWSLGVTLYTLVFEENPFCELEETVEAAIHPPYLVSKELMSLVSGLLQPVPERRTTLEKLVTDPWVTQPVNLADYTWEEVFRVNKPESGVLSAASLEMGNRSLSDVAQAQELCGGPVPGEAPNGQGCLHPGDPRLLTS
T7 sequence (Q15831 whole entry): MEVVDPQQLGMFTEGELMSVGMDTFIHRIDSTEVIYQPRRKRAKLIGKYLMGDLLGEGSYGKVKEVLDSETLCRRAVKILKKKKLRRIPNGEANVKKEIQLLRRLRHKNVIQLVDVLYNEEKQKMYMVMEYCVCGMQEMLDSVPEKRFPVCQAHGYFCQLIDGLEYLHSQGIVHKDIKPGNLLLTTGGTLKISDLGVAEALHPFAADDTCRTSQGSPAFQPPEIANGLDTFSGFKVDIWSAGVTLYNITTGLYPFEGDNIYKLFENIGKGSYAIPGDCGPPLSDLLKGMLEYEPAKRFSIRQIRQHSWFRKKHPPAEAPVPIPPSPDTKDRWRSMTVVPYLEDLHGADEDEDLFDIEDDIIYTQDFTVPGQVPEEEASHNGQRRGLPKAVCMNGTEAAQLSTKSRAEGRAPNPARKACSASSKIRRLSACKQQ
T7 sequence (Q7RTN6 whole entry partner): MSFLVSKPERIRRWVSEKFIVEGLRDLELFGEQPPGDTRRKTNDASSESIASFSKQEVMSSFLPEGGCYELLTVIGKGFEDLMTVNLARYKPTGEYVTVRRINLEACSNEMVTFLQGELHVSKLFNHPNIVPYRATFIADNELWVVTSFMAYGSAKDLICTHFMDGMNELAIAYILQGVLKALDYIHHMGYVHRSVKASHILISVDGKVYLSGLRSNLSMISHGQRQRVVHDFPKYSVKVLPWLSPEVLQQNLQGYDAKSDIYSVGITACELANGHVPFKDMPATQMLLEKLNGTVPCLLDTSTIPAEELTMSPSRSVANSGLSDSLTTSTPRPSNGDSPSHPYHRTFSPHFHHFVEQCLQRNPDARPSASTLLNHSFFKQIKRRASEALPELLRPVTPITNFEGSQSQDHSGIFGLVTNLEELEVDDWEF
T7 sequence (Q9Y376 whole entry partner): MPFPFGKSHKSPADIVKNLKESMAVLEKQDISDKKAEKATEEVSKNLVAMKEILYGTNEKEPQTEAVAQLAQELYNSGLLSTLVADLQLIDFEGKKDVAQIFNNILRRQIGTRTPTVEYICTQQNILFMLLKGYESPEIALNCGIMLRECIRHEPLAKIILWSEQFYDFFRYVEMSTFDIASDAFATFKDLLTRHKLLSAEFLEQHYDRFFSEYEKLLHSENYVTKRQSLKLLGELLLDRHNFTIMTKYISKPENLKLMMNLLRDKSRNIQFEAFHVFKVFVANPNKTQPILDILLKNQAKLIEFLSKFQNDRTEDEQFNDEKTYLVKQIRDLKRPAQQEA
T13 sequence (Q02763 23-1124): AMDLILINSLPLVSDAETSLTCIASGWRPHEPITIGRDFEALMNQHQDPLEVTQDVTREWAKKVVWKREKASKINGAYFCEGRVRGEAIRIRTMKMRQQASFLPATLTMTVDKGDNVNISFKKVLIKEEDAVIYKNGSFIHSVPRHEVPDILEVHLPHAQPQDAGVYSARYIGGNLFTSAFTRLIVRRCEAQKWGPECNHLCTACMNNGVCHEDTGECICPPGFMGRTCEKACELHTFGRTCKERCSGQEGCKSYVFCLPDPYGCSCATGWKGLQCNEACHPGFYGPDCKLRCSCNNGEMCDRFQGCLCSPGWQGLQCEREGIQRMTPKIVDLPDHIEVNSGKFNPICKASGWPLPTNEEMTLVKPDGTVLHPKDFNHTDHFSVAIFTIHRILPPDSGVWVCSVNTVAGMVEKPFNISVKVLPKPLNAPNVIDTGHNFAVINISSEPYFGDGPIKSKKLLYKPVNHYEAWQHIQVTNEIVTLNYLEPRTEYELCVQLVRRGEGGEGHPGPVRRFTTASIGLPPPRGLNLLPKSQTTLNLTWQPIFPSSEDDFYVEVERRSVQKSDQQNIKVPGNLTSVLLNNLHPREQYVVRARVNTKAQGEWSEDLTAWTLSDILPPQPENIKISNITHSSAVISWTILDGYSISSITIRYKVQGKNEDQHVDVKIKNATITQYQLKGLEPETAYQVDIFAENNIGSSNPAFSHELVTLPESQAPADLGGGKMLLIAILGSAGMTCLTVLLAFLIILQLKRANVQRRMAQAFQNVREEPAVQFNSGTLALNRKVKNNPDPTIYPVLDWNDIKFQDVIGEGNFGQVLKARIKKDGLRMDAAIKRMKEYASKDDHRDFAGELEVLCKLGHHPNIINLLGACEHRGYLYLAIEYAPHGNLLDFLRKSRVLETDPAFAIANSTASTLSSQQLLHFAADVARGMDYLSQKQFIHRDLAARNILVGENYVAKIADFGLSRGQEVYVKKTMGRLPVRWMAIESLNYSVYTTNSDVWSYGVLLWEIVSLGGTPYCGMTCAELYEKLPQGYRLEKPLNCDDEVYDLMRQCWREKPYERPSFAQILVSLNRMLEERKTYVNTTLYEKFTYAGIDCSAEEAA
T2 sequence (P31749 whole entry): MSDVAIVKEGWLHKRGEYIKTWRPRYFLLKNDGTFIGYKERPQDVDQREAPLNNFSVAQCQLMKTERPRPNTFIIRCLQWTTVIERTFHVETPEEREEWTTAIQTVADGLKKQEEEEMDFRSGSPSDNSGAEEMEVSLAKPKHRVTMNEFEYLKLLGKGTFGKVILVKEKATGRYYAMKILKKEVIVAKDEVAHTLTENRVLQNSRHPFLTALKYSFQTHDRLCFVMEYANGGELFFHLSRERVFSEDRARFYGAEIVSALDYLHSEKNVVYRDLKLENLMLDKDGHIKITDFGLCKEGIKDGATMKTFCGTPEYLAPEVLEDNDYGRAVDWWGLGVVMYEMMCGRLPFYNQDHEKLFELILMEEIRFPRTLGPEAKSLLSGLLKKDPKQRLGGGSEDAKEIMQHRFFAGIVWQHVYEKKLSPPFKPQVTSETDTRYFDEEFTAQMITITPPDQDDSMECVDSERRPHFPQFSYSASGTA

With `Nc1ncccc1-c1nc2ccc(-c3ccccc3)nc2n1-c1ccc(C2(N)CCC2)cc1` [ARQ 092] the GI50 [1] was 40000 nM, the TGI [2] was 84% and the TGI [3] was 16%. For the same compound, the “% T/C” value [4, 30] was 10%, the Tumor Volume Mean [4, 30] was 300 mm³ and the tumor growth inhibition ([4]; MTD of 100 mg/kg) was “over 90%”. For the same compound, the “% T/C” value [5] was 46%, the Tumor Volume Mean [5] was 523 mm³ and the “% T/C” value [6] was 49%. For the same compound, the Tumor Volume Mean [6] was 229 mm³, the “% T/C” value [7] was 70% and the Tumor Volume Mean [7] was 2900 mm³. For the same compound, the “% T/C” value [8] was 73%, the Tumor Volume Mean [8] was 953 mm³ and the “% T/C” value [9] was 100%. For the same compound, the Tumor Volume Mean [9] was 540 mm³, the IC50 [10] was 40 nM and the IC50 [11] was 310 nM. For the same compound, the MTD at 14 days [12] was 100 mg/kg.
For `CC(=O)N(C)C1CCN(c2cccc(-c3ccc4nc(-c5cccnc5N)n(-c5ccc(C6(N)CCC6)cc5)c4n3)c2)CC1` [ARQ 751], the “% Inhibition at 5 μM, Haspin” value [13] was 30%, the “% Inhibition at 5 μM, AKT1-FL” value [14] was 57% and the “% Inhibition at 5 μM, Blk(h)” value [15] was 40%. For the same compound, the “% Inhibition at 5 μM, CDK2/cyclinE” value [16] was 21%, the “% Inhibition at 5 μM, ErbB4(HER4)” value [17] was 21% and the “% Inhibition at 5 μM, FAK” value [18] was 20%. For the same compound, the “% Inhibition at 5 μM, LKB1” value [19] was 23%, the “% Inhibition at 5 μM, Met” value [20] was 28% and the “% Inhibition at 5 μM, Other 232 kinases” value [21] was less than 20%. For the same compound, the “% Inhibition at 5 μM, PASK” value [22] was 26%, the “% Inhibition at 5 μM, Pim-3” value [23] was 24% and the “% Inhibition at 5 μM, SGK3(119-end)” value [24] was 28%. For the same compound, the “% Inhibition at 5 μM, Syk” value [25] was 21%, the “% Inhibition at 5 μM, Tie2” value [26] was 33% and the EC50 [27] was 10 nM and 10.2 nM. The EC50 [28] was 5 nM and 5.1 nM and the EC50 [29] was 49 nM and 48.5 nM.
